Assay results from publication PMC8402075, “Synthesis and Antiplasmodial Activity of Bisindolylcyclobutenediones” (Molecules, 2021).
“Also recorded” adds a separate entry of the source. Read-outs that look alike come from different tables or passages of the source.

What was measured:
recombinant PfGSK-3 = target: T1, recombinant PfGSK-3 (Plasmodium falciparum, UniProt O77344); assay: PfGSK-3 inhibition assay (KinaseGlo Plus); format: biochemical; conditions: tested up to a concentration of 10 µM, kinase Glo assay
T1 construct: 6xHis (N, cleaved yes); GST (N, cleaved yes); made in house; host or cells: E. coli BL21 (DE3)-RIL
Experimental: PfGSK-3 was produced as published before. In brief, PfGSK-3 was cloned into pOPIN J expression vector [57] which was transformed into E. coli BL21 (DE3)-RIL. Expression of recombinant 6xHis-GST-PfGSK-3 was induced by incubation with isopropyl β-D-1-thiogalactopyranoside (IPTG). The recombinant protein was purified by affinity chromatography using glutathione resin and elution by digestion with human rhinovirus 3C protease.
The PfGSK-3 inhibition assay was carried out using the commercial KinaseGlo Plus assay (KinaseGlo Plus, Promega) as described before. In brief, the kinase and a corresponding substrate (GS-1 substrate, Promega) in the presence of ATP were used to perform substrate phosphorylation. Subsequently, luminescence is generated utilizing luciferase which is a component of the KinaseGlo Reagent. The intensity of the luminescence signal corresponds to the amount of remaining ATP in the reaction mixture. For the investigation, potential kinase inhibitors were dissolved in DMSO and were added directly to the kinase reaction. The final DMSO concentration in the kinase reaction was at most 1%. As the negative control, 1% DMSO without test compound was measured. A control reaction without kinase was measured simultaneously. The difference between kinase reaction and control reaction corresponds to the kinase activity.

[1] = system: P. falciparum (NF54-luc strain) erythrocytic stages; assay: Luciferase-based viability screening for antiplasmodial activity; format: cell-based, Plasmodium falciparum; conditions: Plasmodium falciparum; for inhibition at 3 µM: read-out: Inhibition at 3 µM [%]
Experimental: All synthesized new bisindolylcyclobutenediones 2a–2ar and the related bisindolylmaleimide 8 [37] were screened for inhibition of erythrocytic stages of Plasmodium falciparum employing a bioluminescence-based viability assay on transgenic parasites that constitutively express luciferase (PfNF54-luc). Initially, the compounds were evaluated in single-dose test runs (3 µM). If >20% viability inhibition was observed, dose-response curves were generated and IC50 values were calculated (Table 1). […] The bisindolylmaleimide 8 [37] inhibited the parasites in a single-digit micromolar concentration, similar to many of the bisindolylcyclobutenediones in the study. Because the bisindolylcyclobutenediones 2 display a higher degree of structural novelty, only this compound class was further pursued for its antiplasmodial activity. […] These structural features were considered unfavorable for orientations as illustrated in Figure 2 with 2a and Pfmap-2, PfPK5, PfCDPK2, Pflammer, and PfPK7, respectively. However, a structure generated for 2a in PfGSK-3 in which the indole units are oriented perpendicular to each other (Figure 2a) was considered compatible with the indicated substitution pattern. Consequently, the potent antiplasmodial derivatives 2k, 2ad, and 2ae were tested in a kinase Glo assay for inhibition of recombinant PfGSK-3. […] For the compounds with particularly potent antiplasmodial activity, cytotoxicity was also determined using the human cell line THP-1 to assess selectivity with respect to parasite cells (Table 2).
Screening for the antiplasmodial activity of test compounds was performed by luciferase-based viability assays as reported previously. In brief, asexual erythrocytic stages of transgenic NF54-luc P. falciparum were cultured as described elsewhere. Parasite cultures with parasitaemia of 0.5–1% were incubated in the presence of 3 µM test compounds for 48 h. After the subsequent addition of Bright-Glo substrate solution (Promega, Madison, WI), the resulting luminescence was measured. Untreated cultures (0.01% DMSO) were used as negative controls. Experiments were performed in triplicate and were repeated as a whole at least twice. Blasticidin (Sigma-Aldrich, St. Louis, MO, USA) was included as a positive control.

human THP-1 cell line = assay: Cytotoxicity assay on human THP-1 cell line (Alamar Blue); format: cell-based; conditions: for Selectivity Index (SI) = IC50, THP-1/IC50, Pf: THP-1 versus P. falciparum NF54-luc; for IC50: human THP-1 cell line, 48 h, Alamar Blue
Experimental: The cytotoxicity of selected antiplasmodial bisindolylcyclobutenediones was determined against THP-1 cells following a protocol described previously. In brief, THP-1 cells were incubated with test compounds in serial compound dilutions in the presence of 0.01% DMSO at 37 °C. After 48 h, Alamar Blue was added, and after 4 h the fluorescence was read (λex = 544 nm, λem = 590 nm) using a microplate reader. THP-1 cells in wells containing medium plus 0.01% DMSO served as negative controls. Experiments were performed in triplicate and were repeated as a whole at least twice.

[2] = NF54, 48 h, read-out: IC50 [µM], concentration for 50% inhibition of P. falciparum (NF54-luc strain) erythrocytic stages

T1 sequence (O77344 entry or part of it): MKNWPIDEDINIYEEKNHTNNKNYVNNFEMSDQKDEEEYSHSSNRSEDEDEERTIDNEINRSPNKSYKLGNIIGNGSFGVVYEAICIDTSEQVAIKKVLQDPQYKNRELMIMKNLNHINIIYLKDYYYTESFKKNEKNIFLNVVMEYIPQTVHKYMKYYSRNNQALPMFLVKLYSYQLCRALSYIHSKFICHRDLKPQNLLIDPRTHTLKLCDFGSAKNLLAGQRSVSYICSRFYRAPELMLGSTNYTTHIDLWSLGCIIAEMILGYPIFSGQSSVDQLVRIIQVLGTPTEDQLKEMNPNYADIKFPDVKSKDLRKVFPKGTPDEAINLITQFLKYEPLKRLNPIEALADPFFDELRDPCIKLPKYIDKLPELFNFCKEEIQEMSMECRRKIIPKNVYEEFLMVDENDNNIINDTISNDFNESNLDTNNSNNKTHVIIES

Row | Structure (SMILES) | Inhibition of recombinant PfGSK-3 (recombinant PfGSK-3) | IC50 [1, 2] [µM] | inhibition at 3 µM ([1]; NF54, 48 h) [%] | IC50 ([1]; NF54, read-out: IC50, Pf [µM]) [µM] | Selectivity Index (SI) = IC50, THP-1/IC50, Pf (human THP-1 cell line) | IC50 (human THP-1 cell line) [µM]
1 | COc1ccc2[nH]cc(-c3c(-c4c[nH]c5ccc(Br)cc45)c(=O)c3=O)c2c1 [2ad, 3-(5-Bromo-1H-indol-3-yl)-4-(5-methoxy-1H-indol-3-yl)cyclobut-3-ene-1,2-dione] | failed to show kinase inhibitory activity; also recorded: inactive; also recorded: did not inhibit PfGSK-3 | 0.47 | 98.8 ± 0.7 | 0.47 | 30 | 14.1
2 | COc1ccc2[nH]cc(-c3c(-c4c[nH]c5ccc(I)cc45)c(=O)c3=O)c2c1 [2ae, 3-(5-Iodo-1H-indol-3-yl)-4-(5-methoxy-1H-indol-3-yl)cyclobut-3-en-1,2-dione] | failed to show kinase inhibitory activity; also recorded: inactive; also recorded: did not inhibit PfGSK-3 | 0.64 |  | 0.64 | 23 | 14.5
3 | Cn1cc(-c2c(-c3c(-c4ccccc4)[nH]c4ccccc34)c(=O)c2=O)c2ccccc21 [2u, 3-(1-Methyl-1H-indol-3-yl)-4-(2-phenyl-1H-indol-3-yl)cyclobut-3-ene-1,2-dione] |  | 1.72 |  | 1.72 | 1.2 | 2.1
4 | O=c1c(-c2c[nH]c3ccccc23)c(-c2c[nH]c3ccc(I)cc23)c1=O [2r, 3-(1H-Indol-3-yl)-4-(5-iodo-1H-indol-3-yl)cyclobut-3-ene-1,2-dione] |  | 0.915 |  | 0.92 | 7.9 | 7.25
5 | CN(C)CCCn1cc(-c2c(-c3c[nH]c4ccccc34)c(=O)c2=O)c2ccccc21 [2k, 3-{1-[3-(Dimethylamino)propyl]-1H-indol-3-yl}-4-(1H-indol-3-yl)cyclobut-3-ene-1,2-dione] | failed to show kinase inhibitory activity; also recorded: inactive; also recorded: did not inhibit PfGSK-3 | 0.376 | 98.1 ± 1.8 | 0.38 | 34 | 12.8
6 | Cn1cc(-c2c(-c3c[nH]c4ccccc34)c(=O)c2=O)c2ccccc21 [2q, 3-(1H-Indol-3-yl)-4-(1-methyl-1H-indol-3-yl)cyclobut-3-ene-1,2-dione] |  | 2.97 |  | 2.97 | 4.7 | 14
